According to ChEMBL document CHEMBL1201862, “PubChem BioAssay data set” (2004):
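Results reflect a 48-hour exposure of cells in 96-well plates to compound at five concentrations. GI50 is the concentration that inhibits growth by half.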 Active and inactive are the calls of the source. No stated cut-off is given here; in the data, active = GI50 up to about 1.1 µM and inactive = higher.

What was measured:
Experiment in all cases: DTP human tumour cell line panel, 48 h
[1] = system: CCRF-CEM
[2] = system: COLO 205
[3] = system: DU-145
[4] = system: EKVX
[5] = system: HT-29
[6] = system: IGROV-1
[7] = system: KM12
[8] = system: M14
[9] = system: MDA-MB-435
[10] = system: NCI-H522
[11] = system: OVCAR-4
[12] = system: OVCAR-8
[13] = system: PC-3
[14] = system: RXF 393
[15] = system: SF-268
[16] = system: SF-295
[17] = system: SK-OV-3
[18] = system: UACC-257
[19] = system: UO-31
[20] = system: BT-549

SMILES	GI50 [1]	GI50 [2]	GI50 [3]	GI50 [4]	GI50 [5]	GI50 [6]	GI50 [7]	GI50 [8]	GI50 [9]	GI50 [10]	GI50 [11]	GI50 [12]	GI50 [13]	GI50 [14]	GI50 [15]	GI50 [16]	GI50 [17]	GI50 [18]	GI50 [19]	GI50 [20]
COC1(OC)C=CC2C1C1C=CC2C1(OC)OC (stereo unspecified)	> 100 µM (inactive)	> 100 µM (inactive)	> 100 µM (inactive)	> 100 µM (inactive)	> 100 µM (inactive)	> 100 µM (inactive)	> 100 µM (inactive)	> 100 µM (inactive)	> 100 µM (inactive)	> 100 µM (inactive)	> 100 µM (inactive)	> 100 µM (inactive)	> 100 µM (inactive)	> 100 µM (inactive)	> 100 µM (inactive)	> 100 µM (inactive)	> 100 µM (inactive)	> 100 µM (inactive)	> 100 µM (inactive)	
CN(C)CCOC1(Cc2ccc(Cl)cc2Cl)CCC(C(C)(C)C)CC1 (stereo unspecified)	1.86 µM (inactive)	1.62 µM (inactive)			1.52 µM (inactive)	3.44 µM (inactive)	1.77 µM (inactive)	1.79 µM (inactive)	1.54 µM (inactive)	1.79 µM (inactive)	1.81 µM (inactive)	1.94 µM (inactive)	1.48 µM (inactive)		5.01 µM (inactive)	1.65 µM (inactive)	2.25 µM (inactive)	2.04 µM (inactive)		1.63 µM (inactive)
C[C@@H]1C(=O)O[C@H]1[C@H](O)CO	> 100 µM (inactive)	> 100 µM (inactive)	> 100 µM (inactive)	> 100 µM (inactive)			> 100 µM (inactive)	> 100 µM (inactive)	> 100 µM (inactive)		> 100 µM (inactive)	> 100 µM (inactive)	> 100 µM (inactive)	> 100 µM (inactive)		> 100 µM (inactive)	> 100 µM (inactive)	> 100 µM (inactive)	> 10 µM (inactive)	> 100 µM (inactive)
N=c1oc2ccccc2cc1C(=O)Nc1ccccn1	44.8 µM (inactive)	> 100 µM (inactive)	> 100 µM (inactive)	33.2 µM (inactive)	> 100 µM (inactive)	51.9 µM (inactive)	56.5 µM (inactive)	> 100 µM (inactive)	> 100 µM (inactive)		> 100 µM (inactive)	> 100 µM (inactive)		> 100 µM (inactive)	> 100 µM (inactive)		> 100 µM (inactive)	> 100 µM (inactive)		> 100 µM (inactive)
N/C(=N\c1ccc(Cl)cc1)NS(=O)(=O)c1ccc(S(=O)(=O)c2ccccc2)s1		18.4 µM (inactive)	21.5 µM (inactive)	12.9 µM (inactive)	21.7 µM (inactive)	13.8 µM (inactive)	22.8 µM (inactive)	17.9 µM (inactive)		14.5 µM (inactive)	17.5 µM (inactive)	20 µM (inactive)	14.2 µM (inactive)	53.8 µM (inactive)	19.4 µM (inactive)	15.1 µM (inactive)	38.7 µM (inactive)	14.8 µM (inactive)	16.6 µM (inactive)	17.6 µM (inactive)
N#Cc1nnc2ccccc2c1N		> 100 µM (inactive)	> 100 µM (inactive)	> 100 µM (inactive)	> 100 µM (inactive)	> 100 µM (inactive)	> 100 µM (inactive)	> 100 µM (inactive)	> 100 µM (inactive)		> 100 µM (inactive)	> 100 µM (inactive)	> 100 µM (inactive)		> 100 µM (inactive)			> 100 µM (inactive)	> 100 µM (inactive)	> 100 µM (inactive)
CN(C)c1ccc(/C=C2\N=C(c3ccccc3)N(c3nc4c(Cl)cc(Cl)cc4s3)C2=O)cc1	0.731 µM (active)	55.8 µM (inactive)	> 100 µM (inactive)	21.8 µM (inactive)	38.4 µM (inactive)	41 µM (inactive)	34.2 µM (inactive)	75.7 µM (inactive)	21.2 µM (inactive)		39.2 µM (inactive)	61.9 µM (inactive)	32.4 µM (inactive)		48.6 µM (inactive)	93.8 µM (inactive)	> 100 µM (inactive)	47 µM (inactive)	43.8 µM (inactive)	54.3 µM (inactive)
O=C(O)CCC1C(=O)C2CCN1CC2 (stereo unspecified)	> 100 µM (inactive)	> 100 µM (inactive)	> 100 µM (inactive)	> 100 µM (inactive)	> 100 µM (inactive)	> 100 µM (inactive)	> 100 µM (inactive)	> 100 µM (inactive)	> 100 µM (inactive)	> 100 µM (inactive)	> 100 µM (inactive)	> 100 µM (inactive)	> 100 µM (inactive)	> 100 µM (inactive)	> 100 µM (inactive)	> 100 µM (inactive)	> 100 µM (inactive)	> 100 µM (inactive)	> 100 µM (inactive)	
C=CCNC1=C2C[C@@H](C)C[C@@H](OC)[C@H](OC(=O)CCN)[C@H](C)/C=C(\C)[C@@H](OC(N)=O)[C@H](OC)/C=C\C=C(/C)C(=O)NC(=CC1=O)C2=O		0.718 µM (active)	1.21 µM (inactive)	8.75 µM (inactive)	0.409 µM (active)	4.74 µM (inactive)	1.79 µM (inactive)	3.71 µM (inactive)	2.98 µM (inactive)	5.3 µM (inactive)	8.93 µM (inactive)	4.18 µM (inactive)		4.66 µM (inactive)	9.57 µM (inactive)	3.75 µM (inactive)	1.35 µM (inactive)	2.42 µM (inactive)	11.2 µM (inactive)	7.45 µM (inactive)
CC1=C(C)C(=O)C2=C(OCCO2)C1=O	3.73 µM (inactive)	17.6 µM (inactive)	18.8 µM (inactive)	15.1 µM (inactive)	20 µM (inactive)	2.11 µM (inactive)	17.3 µM (inactive)	19.3 µM (inactive)	2.82 µM (inactive)			3.08 µM (inactive)	18.2 µM (inactive)		27.1 µM (inactive)	18.1 µM (inactive)	17.9 µM (inactive)	13.8 µM (inactive)	10.1 µM (inactive)	22.8 µM (inactive)
CCOC(=O)Cn1c(C)nc2nn(Cc3ccccc3)cc2c1=O	> 100 µM (inactive)		> 100 µM (inactive)	> 100 µM (inactive)	> 100 µM (inactive)	> 100 µM (inactive)	> 100 µM (inactive)	> 100 µM (inactive)	> 100 µM (inactive)			> 100 µM (inactive)	> 100 µM (inactive)	> 100 µM (inactive)	> 100 µM (inactive)	> 100 µM (inactive)	> 100 µM (inactive)		> 100 µM (inactive)	> 100 µM (inactive)
O=C1CC2c3ccccc3CCC2c2ccccc21 (stereo unspecified)		2.93 µM (inactive)	57.8 µM (inactive)	2.58 µM (inactive)	13.3 µM (inactive)	26.3 µM (inactive)	9.35 µM (inactive)	15.7 µM (inactive)	19.3 µM (inactive)	23.3 µM (inactive)	> 10 µM (inactive)	21.2 µM (inactive)	26.2 µM (inactive)		27.5 µM (inactive)	17.6 µM (inactive)	51.2 µM (inactive)	26.2 µM (inactive)	15.2 µM (inactive)	
N#C/C(C(=S)NCc1ccccc1)=C(/N)N1CCCC1	> 100 µM (inactive)	> 100 µM (inactive)	> 100 µM (inactive)	> 100 µM (inactive)	> 100 µM (inactive)	> 100 µM (inactive)	> 100 µM (inactive)	> 100 µM (inactive)	> 100 µM (inactive)	> 100 µM (inactive)	> 100 µM (inactive)	> 100 µM (inactive)	> 100 µM (inactive)	74.3 µM (inactive)	> 100 µM (inactive)	> 100 µM (inactive)	> 100 µM (inactive)	> 100 µM (inactive)	> 100 µM (inactive)	
COc1ccc(C(=O)c2sc(N(C)C)nc2-c2ccccc2)cc1	5.07 µM (inactive)	33.7 µM (inactive)	49 µM (inactive)		32.9 µM (inactive)	42.6 µM (inactive)	15.8 µM (inactive)	35.3 µM (inactive)	6.4 µM (inactive)		23.4 µM (inactive)		28.9 µM (inactive)	54.3 µM (inactive)	40.1 µM (inactive)		22.5 µM (inactive)	26.1 µM (inactive)	32.1 µM (inactive)	26.1 µM (inactive)
O=C(Nc1ccccc1Cl)c1cc(S(=O)(=O)Nc2n[nH]c(=O)n2-c2ccccc2)c(S)cc1Cl	> 100 µM (inactive)	> 100 µM (inactive)	> 100 µM (inactive)	> 100 µM (inactive)	> 100 µM (inactive)	> 100 µM (inactive)	> 100 µM (inactive)	> 100 µM (inactive)	> 100 µM (inactive)		> 100 µM (inactive)	> 100 µM (inactive)		> 100 µM (inactive)	> 100 µM (inactive)	> 100 µM (inactive)	> 100 µM (inactive)	> 100 µM (inactive)	> 100 µM (inactive)	> 100 µM (inactive)
COc1ccc(-c2cc(=O)c3c(OC)c(OC)c(OC)c(OC)c3o2)c(OC)c1	33.8 µM (inactive)	17.1 µM (inactive)	30.4 µM (inactive)	29.2 µM (inactive)	24.2 µM (inactive)	36.9 µM (inactive)		21 µM (inactive)	24.6 µM (inactive)	12.9 µM (inactive)	28.3 µM (inactive)	21.9 µM (inactive)		36.7 µM (inactive)	51.5 µM (inactive)	18.4 µM (inactive)	39.8 µM (inactive)	20 µM (inactive)	20.6 µM (inactive)	31 µM (inactive)
